The text below walks through data of PMC5641083, “Blockage of FOXP3 transcription factor dimerization and FOXP3/AML1 interaction inhibits T regulatory cell activity: sequence optimization of a peptide inhibitor” (Oncotarget, 2017).

Where a SMILES comes first, the peptide text is derived from it. [ ]: non-standard residue; d: D form.

For orientation: half-life means the time in which the quantity being followed falls by half.

Data set [1] can be described thus: Metabolic stability in human liver microsomes. Format: in vitro ADME. The settings on record: 1 μM, estimated by first order kinetics. The procedure: (§1) Metabolic stability was measured by Wuxi AppTech (Shanghai, China). Briefly, peptides (1 μM, 5% MeOH in potassium phosphate buffer) were incubated with human (catalogue no. 452161 from BD Gentest) and mouse (catalogue no. M1000, Xenotech) liver microsomes at 37°C for 10 min. Liver microsomes were at a final assay concentration of 0.7 mg protein/mL. The reaction was started by the addition of 90 μL of NADP cofactor solution and stopped by the addition of 300 μL of stop solution (acetonitrile at 4°C, including 100 ng/mL tolbutamide as an internal standard) after 20 min of incubation. The samples were shaken for 5 min and then centrifuged for 20 min at 1500 g. A 100 μL aliquot of the supernatant was transferred to eight new 96-well plates with 300 μL of HPLC water and centrifuged at 1500 g for LC-MS/MS analysis (Shimadzu LC 10-AD−API 4000). An injection volume of 10 μL was added to a Phenomenex Synergi C18 column eluting with formic acid in water or acetonitrile at a flow rate of 800 μL/min. The percent loss of parent compound was calculated from the peak area ratio of the analyte/internal standard. Compounds and positive controls were tested in duplicate.

Data set [2] in a line: Metabolic stability in mouse liver microsomes. Format: in vitro ADME. Conditions: 1 μM, estimated by first order kinetics. The method, then:
as §1

Data set [3] relates to CT26 tumor cells. The experiment in a line: AH1 vaccination and CT26 tumor challenge. Format: in vivo, BALB/c mice. The settings on record: AH1 in IFA, peptide 10 nanomol/mice/day i.p. 10 days, challenge 10^6 CT26 cells s.c. day 10. The method, then: In those experiments, BALB/c mice were immunized with peptide AH1 emulsified in IFA and treated daily with saline or with 50 nanomol/mice/day of peptide P60 i.p. from day 0 to day 9 after immunization. To study the efficacy of CM-1315, our optimized version of P60, mice immunized with AH1 were treated with 10 nanomol/mice/day of P60 or CM-1315 and challenged at day 10 by s.c. injection with 10^6 CT26 tumor cells (instead of 5 × 10^5 cells used in our previous study). As control, groups of mice were injected with AH1 alone or left untreated.
For tumor rejection experiments, Hepa-129 cells (10^6 cells/mouse), were injected subcutaneously (sc) in C3H/HeN mice (n = 6). Ten days later, when the tumor reached 5 mm in diameter, mice were randomly divided into different experimental groups. A group of mice were treated i.p. with anti-PD1 antibodies (50 μg/mouse). Antibody administration was repeated one week after this first administration. A group of mice treated with anti-PD1 also received the cyclic peptide CM-1215 from days 10 to 20 (50 μg/mice/day). Tumor size, presented as the average of two perpendicular diameters (millimetres), was measured at regular intervals. Mice were sacrificed when the mean tumor diameter was greater than 20 mm. […] Tumor size was monitored twice a week with a calliper and it was expressed according to the formula V = (length × width^2)/2. […]

Data set [4] relates to CD4+CD25-ve splenocytes. The experiment in a line: Effector T cells alone stimulated with anti-CD3: proliferation, IL-2 and IFN-γ. Format: cell-based. The settings on record: anti-CD3 stimulation, no Treg. An excerpt:
(§2) FOXP3 is critical for the development and function of Tregs, but also, FOXP3 can be transiently expressed in effector T cells after TCR stimulation leading to hyporesponsiveness of the effector T cell. […] We speculate that the Foxp3 inhibitory peptides may work at two levels: (i) reducing Treg function and (ii) releasing the brake of FOXP3 transient expression on effector T cells. Thus, we studied the effect of CM-1315 in T cell proliferation and IL-2 and IFN-γ production in effector T cells in response to anti-CD3 stimulation. The original P60, the optimized peptide CM-1315 and a control peptide were tested. […] We also studied the effect of the peptides directly in Tregs. Thus, freshly isolated Treg cells were pre-treated with the peptides for 24 h, and after extensive washing, they were used in conventional Treg suppression assay in coculture with effector T cells and anti-CD3 stimulation.
(§3) Supplementary Figure 4: Effect of Foxp3 inhibitory peptides in effector T cells alone. […] T cell proliferation (A) and IL-2 and IFN-γ (B and C) production in response to anti-CD3 stimulation was measured by 3H-thymidine incorporation and by ELISA respectively.
(§4) Supplementary Figure 5: Effect of FOXP3 inhibitory peptides in Treg cells. […] T cell proliferation was measured by 3H-thymidine incorporation assay. […]

Data set [5] relates to Treg cells. The experiment in a line: Treg pre-treated with peptide, then Treg suppression assay. Format: cell-based. The settings on record: Treg incubated with peptide at 20 μM for 24 hours, washed.
Excerpt: as §2, §3, §4

Data set [6] has as its system AH1-specific IFN-γ producing cells. As to the kind of experiment: AH1 immunization in CD25+ depleted mice, IFN-γ ELISPOT. Format: in vivo. The settings on record: mice depleted of CD25+ T cells, CM-1315 day 1 to day 7. From the text:
We also studied the effect of CM-1315 peptide in vivo to improve the immune response after immunization with AH1 peptide in naïve mice and in mice depleted of CD25+ T cells. In this experiment, depletion of CD25+ T cells improved the number of AH1-specific IFN-γ producing cells.
Supplementary Figure 6: In vivo the effect of CM-1315 peptide to improve the immunogenicity of AH1 peptide vaccine.
AH1 peptide, encompassing a cytotoxic T cell epitope for H-2Ld MHC class I molecule, was emulsified in Incomplete Freund adjuvant as previously described and used to immunize groups of naïve mice and in mice depleted of CD25+ T cells (n = 4). A group of CD25 depleted mice was immunized with AH1 and treated with CM-1315 peptide from day 1 to day 7 after immunization. Ten days after, immune response against AH1 was measured by ELISPOT assay to quantify the number of IFN-γ producing cells.
(1 picture or pasted object on this page, not shown here)

For `CSCC[C@@H]1NC(=O)[C@H](C)NC(=O)[C@H](Cc2ccccc2)NC(=O)[C@H](Cc2ccccc2)NC(=O)[C@@H]2CCCN2C(=O)[C@H](Cc2c[nH]c3ccccc23)NC(=O)[C@H](CCSC)NC(=O)[C@H](CCCCN)NC(=O)[C@H](CCCNC(=N)N)NC(=O)[C@H](Cc2ccccc2)NC(=O)[C@H](C)NC(=O)[C@H](CCC(N)=O)NC(=O)[C@H](Cc2ccccc2)NC(=O)[C@@H](C)NC(=O)[C@H](CCCNC(=N)N)NC1=O` [CM-1315] (cyclo(R[dA]FQAFRKMWPFFAM)), the half-life in data set [1] and in data set [2] was about 1 h throughout. In addition, the “Protection against CT26 tumor challenge (in words)” value in data set [3] was “remained protected against challenge with CT26 tumor cells”. Besides, the “T cell proliferation and IL-2, IFN-γ production of effector T cells (in words)” value in data set [4] is reported as “more active than P60”. Besides, the “Inhibition of suppressive activity of pre-treated Treg (in words)” value in data set [5] is “able to inhibit significantly the suppressive activity of Treg”. Further, the “Number of AH1-specific IFN-γ producing cells (in words)” value in data set [6] was “significantly improved this response”.
